How the values were obtained:
Italian ryegrass [1] = test: Test Example 5: herbicidal effect by foliage application, plastic box (Table 20, symbol K); type: in vivo, Italian ryegrass (Lolium multiflorum); settings: 320 g/ha, foliage application after 14-day growth, evaluated three weeks after application
Summary of the method: (§1)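 Foliar spray test: emulsion formulation diluted in water to a set application rate, sprayed onto 14-day-old plants raised in diluvial soil at 25° C to 30° C under glass. Both herbicidal effect and crop effect rated visually three weeks later.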

persian speedwell [2] = test: Test Example 5: herbicidal effect by foliage application, plastic box (Table 20, symbol R); type: in vivo, Persian speedwell (Veronica persica); settings: 320 g/ha, foliage application after 14-day growth, evaluated three weeks after application
Summary of the method: as §1

southern crabgrass [3] = test: Test Example 4: herbicidal effect by soil treatment (Table 19, symbol F); type: in vivo, southern crabgrass (Digitaria ciliaris); settings: amount of applied herbicide 320 g/ha
Summary of the method: (§2)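 Step 1: sow seeds in sterilized diluvial soil, cover ~1.5 cm. Step 2: spray diluted emulsion onto soil surface at predetermined rate. Step 3: greenhouse, 25–30° C, three weeks. Step 4: grade effect on each plant by earlier criteria.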

barnyard grass [4] = test: Test Example 3: herbicidal effect by foliage application, Wagner pot (Table 18, symbol H); type: in vivo, barnyard grass (Echinochloa crus-galli); settings: 320 g/ha
Summary of the method: (§3)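 Plants were sown in alluvial soil held under 0.1–0.5 cm standing water and grown 14 days in a greenhouse at 25–30 °C. An emulsifiable formulation, water-diluted to the set dose, was then sprayed onto the foliage, and effects were scored three weeks later using previously defined criteria.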

lambsquarters [5] = test: Test Example 4: herbicidal effect by soil treatment (Table 19, symbol O); type: in vivo, lambsquarters (Chenopodium album); settings: amount of applied herbicide 320 g/ha
Summary of the method: as §2

redroot pigweed [6] = test: Test Example 5: herbicidal effect by foliage application, plastic box (Table 20, symbol N); type: in vivo, redroot pigweed (Amaranthus retroflexus); settings: 320 g/ha, foliage application after 14-day growth, evaluated three weeks after application
Summary of the method: as §1

wild oat [7] = test: Test Example 5: herbicidal effect by foliage application, plastic box (Table 20, symbol I); type: in vivo, wild oat (Avena fatua); settings: 320 g/ha, foliage application after 14-day growth, evaluated three weeks after application
Summary of the method: as §1

wild oat [8] = test: Test Example 4: herbicidal effect by soil treatment (Table 19, symbol I); type: in vivo, wild oat (Avena fatua); settings: amount of applied herbicide 320 g/ha
Summary of the method: as §2

redroot pigweed [9] = test: Test Example 4: herbicidal effect by soil treatment (Table 19, symbol N); type: in vivo, redroot pigweed (Amaranthus retroflexus); settings: amount of applied herbicide 320 g/ha
Summary of the method: as §2

rice flat sedge = test: Test Example 3: herbicidal effect by foliage application, Wagner pot (Table 18, symbol E); type: in vivo, rice flat sedge (Cyperus iria); settings: 320 g/ha
Summary of the method: as §3

persian speedwell [10] = test: Test Example 4: herbicidal effect by soil treatment (Table 19, symbol R); type: in vivo, Persian speedwell (Veronica persica); settings: amount of applied herbicide 320 g/ha
Summary of the method: as §2

velvetleaf [11] = test: Test Example 4: herbicidal effect by soil treatment (Table 19, symbol M); type: in vivo, velvetleaf (Abutilon theophrasti); settings: amount of applied herbicide 320 g/ha
Summary of the method: as §2

Chinese sprangletop = test: Test Example 3: herbicidal effect by foliage application, Wagner pot (Table 18, symbol D); type: in vivo, chinese sprangletop (Leptochloa chinensis); settings: 320 g/ha
Summary of the method: as §3

velvetleaf [12] = test: Test Example 5: herbicidal effect by foliage application, plastic box (Table 20, symbol M); type: in vivo, velvetleaf (Abutilon theophrasti); settings: 320 g/ha, foliage application after 14-day growth, evaluated three weeks after application
Summary of the method: as §1

southern crabgrass [13] = test: Test Example 5: herbicidal effect by foliage application, plastic box (Table 20, symbol F); type: in vivo, southern crabgrass (Digitaria ciliaris); settings: 320 g/ha, foliage application after 14-day growth, evaluated three weeks after application
Summary of the method: as §1

lambsquarters [14] = test: Test Example 5: herbicidal effect by foliage application, plastic box (Table 20, symbol O); type: in vivo, lambsquarters (Chenopodium album); settings: 320 g/ha, foliage application after 14-day growth, evaluated three weeks after application
Summary of the method: as §1

chickweed [15] = test: Test Example 4: herbicidal effect by soil treatment (Table 19, symbol P); type: in vivo, common chickweed (Stellaria media); settings: amount of applied herbicide 320 g/ha
Summary of the method: as §2

green foxtail [16] = test: Test Example 4: herbicidal effect by soil treatment (Table 19, symbol G); type: in vivo, green foxtail (Setaria viridis); settings: amount of applied herbicide 320 g/ha
Summary of the method: as §2

barnyard grass [17] = test: Test Example 5: herbicidal effect by foliage application, plastic box (Table 20, symbol H); type: in vivo, barnyard grass (Echinochloa crus-galli); settings: 320 g/ha, foliage application after 14-day growth, evaluated three weeks after application
Summary of the method: as §1

barnyard grass [18] = test: Test Example 4: herbicidal effect by soil treatment (Table 19, symbol H); type: in vivo, barnyard grass (Echinochloa crus-galli); settings: amount of applied herbicide 320 g/ha
Summary of the method: as §2

green foxtail [19] = test: Test Example 5: herbicidal effect by foliage application, plastic box (Table 20, symbol G); type: in vivo, green foxtail (Setaria viridis); settings: 320 g/ha, foliage application after 14-day growth, evaluated three weeks after application
Summary of the method: as §1

Italian ryegrass [20] = test: Test Example 4: herbicidal effect by soil treatment (Table 19, symbol K); type: in vivo, Italian ryegrass (Lolium multiflorum); settings: amount of applied herbicide 320 g/ha
Summary of the method: as §2

windgrass [21] = test: Test Example 4: herbicidal effect by soil treatment (Table 19, symbol L); type: in vivo, windgrass (Apera spica-venti); settings: amount of applied herbicide 320 g/ha
Summary of the method: as §2

windgrass [22] = test: Test Example 5: herbicidal effect by foliage application, plastic box (Table 20, symbol L); type: in vivo, windgrass (Apera spica-venti); settings: 320 g/ha, foliage application after 14-day growth, evaluated three weeks after application
Summary of the method: as §1

chickweed [23] = test: Test Example 5: herbicidal effect by foliage application, plastic box (Table 20, symbol P); type: in vivo, common chickweed (Stellaria media); settings: 320 g/ha, foliage application after 14-day growth, evaluated three weeks after application
Summary of the method: as §1

blackgrass = test: Test Example 5: herbicidal effect by foliage application, plastic box (Table 20, symbol J); type: in vivo, blackgrass (Alopecurus myosuroides); settings: 320 g/ha, foliage application after 14-day growth, evaluated three weeks after application
Summary of the method: as §1

COc1ccccc1-c1sc2cc(OS(=O)(=O)C(F)(F)F)ccc2c1-c1c(O)c(C)nn(C)c1=O [3-161]
herbicidal effect on K: Italian ryegrass (evaluation grade 0-5) (Italian ryegrass [1]): 4 (Herbicidal rate of 70% or more and less than 90%)
herbicidal effect on R: persian speedwell (evaluation grade 0-5) (persian speedwell [2]): 5 (Herbicidal rate of 90% or more (almost completely withered))
Herbicidal effect by soil treatment, F: southern crabgrass (southern crabgrass [3]): 0 (Herbicidal rate of 5% or less (almost no effect))
herbicidal effect on barnyard grass (H) (barnyard grass [4]): 5 (Herbicidal rate of 90% or more (almost completely withered))
Herbicidal effect by soil treatment, O: lambsquarters (lambsquarters [5]): 0 (Herbicidal rate of 5% or less (almost no effect))
herbicidal effect on N: redroot pigweed (evaluation grade 0-5) (redroot pigweed [6]): 4 (Herbicidal rate of 70% or more and less than 90%)
herbicidal effect on I: wild oat (evaluation grade 0-5) (wild oat [7]): 0 (Herbicidal rate of 5% or less (almost no effect))
Herbicidal effect by soil treatment, I: wild oat (wild oat [8]): 0 (Herbicidal rate of 5% or less (almost no effect))
Herbicidal effect by soil treatment, N: redroot pigweed (redroot pigweed [9]): 4 (Herbicidal rate of 70% or more and less than 90%)
herbicidal effect on rice flat sedge (E) (rice flat sedge): 3 (Herbicidal rate of 40% or more and less than 70%)
Herbicidal effect by soil treatment, R: persian speedwell (persian speedwell [10]): 0 (Herbicidal rate of 5% or less (almost no effect))
Herbicidal effect by soil treatment, M: velvetleaf (velvetleaf [11]): 0 (Herbicidal rate of 5% or less (almost no effect))
herbicidal effect on Chinese sprangletop (D) (Chinese sprangletop): 3 (Herbicidal rate of 40% or more and less than 70%)
herbicidal effect on M: velvetleaf (evaluation grade 0-5) (velvetleaf [12]): 2 (Herbicidal rate of 20% or more and less than 40%)
herbicidal effect on F: southern crabgrass (evaluation grade 0-5) (southern crabgrass [13]): 0 (Herbicidal rate of 5% or less (almost no effect))
herbicidal effect on O: lambsquarters (evaluation grade 0-5) (lambsquarters [14]): 3 (Herbicidal rate of 40% or more and less than 70%)
Herbicidal effect by soil treatment, P: chickweed (chickweed [15]): 0 (Herbicidal rate of 5% or less (almost no effect))
Herbicidal effect by soil treatment, G: green foxtail (green foxtail [16]): 0 (Herbicidal rate of 5% or less (almost no effect))
herbicidal effect on H: barnyard grass (evaluation grade 0-5) (barnyard grass [17]): 3 (Herbicidal rate of 40% or more and less than 70%)
Herbicidal effect by soil treatment, H: barnyard grass (barnyard grass [18]): 0 (Herbicidal rate of 5% or less (almost no effect))
herbicidal effect on G: green foxtail (evaluation grade 0-5) (green foxtail [19]): 3 (Herbicidal rate of 40% or more and less than 70%)
Herbicidal effect by soil treatment, K: Italian ryegrass (Italian ryegrass [20]): 0 (Herbicidal rate of 5% or less (almost no effect))
Herbicidal effect by soil treatment, L: windgrass (windgrass [21]): 0 (Herbicidal rate of 5% or less (almost no effect))
herbicidal effect on L: windgrass (evaluation grade 0-5) (windgrass [22]): 4 (Herbicidal rate of 70% or more and less than 90%)
herbicidal effect on P: chickweed (evaluation grade 0-5) (chickweed [23]): 5 (Herbicidal rate of 90% or more (almost completely withered))
herbicidal effect on J: blackgrass (evaluation grade 0-5) (blackgrass): 4 (Herbicidal rate of 70% or more and less than 90%)

Cc1nn(C)c(=O)c(-c2c(-c3ccc(OC(F)F)cc3)sc3c(F)cccc23)c1O [4-046]
herbicidal effect on K: Italian ryegrass (evaluation grade 0-5) (Italian ryegrass [1]): 5 (Herbicidal rate of 90% or more (almost completely withered))
herbicidal effect on R: persian speedwell (evaluation grade 0-5) (persian speedwell [2]): 5 (Herbicidal rate of 90% or more (almost completely withered))
Herbicidal effect by soil treatment, F: southern crabgrass (southern crabgrass [3]): 0 (Herbicidal rate of 5% or less (almost no effect))
herbicidal effect on barnyard grass (H) (barnyard grass [4]): 5 (Herbicidal rate of 90% or more (almost completely withered))
Herbicidal effect by soil treatment, O: lambsquarters (lambsquarters [5]): 1 (Herbicidal rate of 5% or more and less than 20%)
herbicidal effect on N: redroot pigweed (evaluation grade 0-5) (redroot pigweed [6]): 5 (Herbicidal rate of 90% or more (almost completely withered))
herbicidal effect on I: wild oat (evaluation grade 0-5) (wild oat [7]): 4 (Herbicidal rate of 70% or more and less than 90%)
Herbicidal effect by soil treatment, I: wild oat (wild oat [8]): 0 (Herbicidal rate of 5% or less (almost no effect))
Herbicidal effect by soil treatment, N: redroot pigweed (redroot pigweed [9]): 5 (Herbicidal rate of 90% or more (almost completely withered))
herbicidal effect on rice flat sedge (E) (rice flat sedge): 5 (Herbicidal rate of 90% or more (almost completely withered))
Herbicidal effect by soil treatment, R: persian speedwell (persian speedwell [10]): 5 (Herbicidal rate of 90% or more (almost completely withered))
Herbicidal effect by soil treatment, M: velvetleaf (velvetleaf [11]): 3 (Herbicidal rate of 40% or more and less than 70%)
herbicidal effect on Chinese sprangletop (D) (Chinese sprangletop): 1 (Herbicidal rate of 5% or more and less than 20%)
herbicidal effect on M: velvetleaf (evaluation grade 0-5) (velvetleaf [12]): 5 (Herbicidal rate of 90% or more (almost completely withered))
herbicidal effect on F: southern crabgrass (evaluation grade 0-5) (southern crabgrass [13]): 0 (Herbicidal rate of 5% or less (almost no effect))
herbicidal effect on O: lambsquarters (evaluation grade 0-5) (lambsquarters [14]): 5 (Herbicidal rate of 90% or more (almost completely withered))
Herbicidal effect by soil treatment, P: chickweed (chickweed [15]): 3 (Herbicidal rate of 40% or more and less than 70%)
Herbicidal effect by soil treatment, G: green foxtail (green foxtail [16]): 3 (Herbicidal rate of 40% or more and less than 70%)
herbicidal effect on H: barnyard grass (evaluation grade 0-5) (barnyard grass [17]): 5 (Herbicidal rate of 90% or more (almost completely withered))
Herbicidal effect by soil treatment, H: barnyard grass (barnyard grass [18]): 3 (Herbicidal rate of 40% or more and less than 70%)
herbicidal effect on G: green foxtail (evaluation grade 0-5) (green foxtail [19]): 5 (Herbicidal rate of 90% or more (almost completely withered))
Herbicidal effect by soil treatment, K: Italian ryegrass (Italian ryegrass [20]): 3 (Herbicidal rate of 40% or more and less than 70%)
Herbicidal effect by soil treatment, L: windgrass (windgrass [21]): 0 (Herbicidal rate of 5% or less (almost no effect))
herbicidal effect on L: windgrass (evaluation grade 0-5) (windgrass [22]): 5 (Herbicidal rate of 90% or more (almost completely withered))
herbicidal effect on P: chickweed (evaluation grade 0-5) (chickweed [23]): 5 (Herbicidal rate of 90% or more (almost completely withered))
herbicidal effect on J: blackgrass (evaluation grade 0-5) (blackgrass): 4 (Herbicidal rate of 70% or more and less than 90%)

Reference: patent publication US20230085307A1, “PYRIDAZINONE COMPOUND AND HERBICIDE” (NISSAN CHEMICAL CORPORATION, priority 2019, published 2023)
